Patent publication US10556902B2 (Asceneuron SA, priority 2016, dated 2020)

Biological target: His-Tagged hOGA (human O-GlcNAcase) (Homo sapiens (Human), UniProt O60502)
Assay: Human O-GlcNAcase enzyme inhibition assay;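 further: reactions contained 20 nM His-tagged hOGA enzyme with 10 µM FL-GlcNAc substrate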
Assay type: biochemical
Details: OGA enzyme inhibition assay; FL-GlcNAc substrate, pH 6.5; activity classes defined in μM; read-out: OGA IC50
Method: Then, 20 nM of His-Tagged hOGA and 10 μM of FL-GlcNAc (Fluorescein mono-beta-D-(2-deoxy-2-N-acetyl) glucopyranoside; Marker Gene Technologies Inc, M1485) were added to the 384-well plate for a final volume of 20 μl.

Chain of His-Tagged hOGA (human O-GlcNAcase) (O60502 whole entry): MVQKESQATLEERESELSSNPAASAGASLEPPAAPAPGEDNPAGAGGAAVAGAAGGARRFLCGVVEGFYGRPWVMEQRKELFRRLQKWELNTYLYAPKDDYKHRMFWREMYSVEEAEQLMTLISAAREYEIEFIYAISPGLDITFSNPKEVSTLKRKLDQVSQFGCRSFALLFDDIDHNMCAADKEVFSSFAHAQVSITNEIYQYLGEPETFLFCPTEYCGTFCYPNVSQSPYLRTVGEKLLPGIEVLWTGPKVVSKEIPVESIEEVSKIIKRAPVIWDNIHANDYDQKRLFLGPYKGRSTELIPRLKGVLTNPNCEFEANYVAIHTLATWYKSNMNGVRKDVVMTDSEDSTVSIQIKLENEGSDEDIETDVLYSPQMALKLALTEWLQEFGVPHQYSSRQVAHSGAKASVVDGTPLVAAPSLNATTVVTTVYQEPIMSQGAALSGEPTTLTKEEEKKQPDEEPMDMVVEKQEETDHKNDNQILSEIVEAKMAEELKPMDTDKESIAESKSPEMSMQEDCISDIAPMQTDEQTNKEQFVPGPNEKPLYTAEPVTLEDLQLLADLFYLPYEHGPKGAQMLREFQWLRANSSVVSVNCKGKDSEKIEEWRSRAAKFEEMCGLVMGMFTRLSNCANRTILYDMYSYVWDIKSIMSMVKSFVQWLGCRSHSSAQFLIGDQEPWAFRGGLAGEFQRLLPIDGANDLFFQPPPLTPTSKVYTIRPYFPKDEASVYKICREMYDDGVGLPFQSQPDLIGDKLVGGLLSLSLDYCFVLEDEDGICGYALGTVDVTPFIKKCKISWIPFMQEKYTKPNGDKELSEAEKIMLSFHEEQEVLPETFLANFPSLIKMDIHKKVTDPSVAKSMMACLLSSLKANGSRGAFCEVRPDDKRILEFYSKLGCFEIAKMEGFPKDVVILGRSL

In the case of `CC(c1ccc2nccnc2c1)N1CCN(c2ccc(C(O)C(F)(F)F)cn2)CC1` (racemic) [Example 56, 2,2,2-trifluoro-1-(6-(4-(1-(quinoxalin-6-yl)ethyl)piperazin-1-yl)pyridin-3-yl)ethan-1-ol], the IC50 is reported as 0.05 to 0.2 µM.

`CC(c1ccc2nccnc2c1)N1CCN(c2ccc(C3(O)CCOCC3)cn2)CC1` (racemic) [Example 57, 4-(6-(4-(1-(quinoxalin-6-yl)ethyl)piperazin-1-yl)pyridin-3-yl)tetrahydro-2H-pyran-4-ol] gave an IC50 of 0.05 to 0.2 µM.

In the case of `CC(c1ccc2nccnc2c1)N1CCN(c2ccc(C3(O)CCOC3)cn2)CC1` (racemic) [Example 58, 3-(6-(4-(1-(quinoxalin-6-yl)ethyl)piperazin-1-yl)pyridin-3-yl)tetrahydrofuran-3-ol], the IC50 is reported as 0.05 to 0.2 µM.

For `CC(c1ccc2nccnc2c1)N1CCN(c2ccc(C3(O)COC3)cn2)CC1` (racemic) [Example 59, 3-(6-(4-(1-(quinoxalin-6-yl)ethyl)piperazin-1-yl)pyridin-3-yl)oxetan-3-ol], the IC50 was 0.05 to 0.2 µM.

With `CC(c1ccc2nccnc2c1)N1CCN(c2ccc(C3(O)CCCCC3)cn2)CC1` (racemic) [Example 60, 1-(6-(4-(1-(quinoxalin-6-yl)ethyl)piperazin-1-yl)pyridin-3-yl)cyclohexan-1-ol] the IC50 was 0.2 to 1 µM.

In the case of `CC(c1ccc2nccnc2c1)N1CCN(c2ccc(C3(O)CCCC3)cn2)CC1` (racemic) [Example 61, 1-(6-(4-(1-(quinoxalin-6-yl)ethyl)piperazin-1-yl)pyridin-3-yl)cyclopentan-1-ol], the IC50 is reported as 0.05 to 0.2 µM.

With `COC(=O)c1ccc(N2CCN(C(C)c3ccc4c(c3)OCC4)CC2)nc1` (racemic) [Example 62, Methyl 6-(4-(1-(2,3-dihydrobenzofuran-6-yl)ethyl)piperazin-1-yl)nicotinate] the IC50 was < 0.05 µM.

With `CC(c1ccc2c(c1)OCC2)N1CCN(c2ccc(C(=O)N(C)C)cn2)CC1` (racemic) [Example 63, 6-(4-(1-(2,3-dihydrobenzofuran-6-yl)ethyl)piperazin-1-yl)-N,N-dimethylnicotinamide] the IC50 was < 0.05 µM.

In the case of `CNC(=O)c1ccc(N2CCN(C(C)c3ccc4c(c3)OCC4)CC2)nc1` (racemic) [Example 64, 6-(4-(1-(2,3-dihydrobenzofuran-6-yl)ethyl)piperazin-1-yl)-N-methylnicotinamide], the IC50 is reported as < 0.05 µM.

`CC(c1ccc2c(c1)OCC2)N1CCN(c2ccc(C(=O)O)cn2)CC1` (racemic) [Example 65, 6-(4-(1-(2,3-Dihydrobenzofuran-6-yl)ethyl)piperazin-1-yl)nicotinic acid] was tested, and the IC50 was < 0.05 µM.

With `COC(=O)c1ccc(N2CCN(C(C)c3ccc4nccnc4c3)CC2)nc1` (racemic) [Example 66, Methyl-6-(4-(1-(quinoxalin-6-yl)ethyl)piperazin-1-yl) nicotinate] the IC50 was 0.05 to 0.2 µM.

`CC(c1ccc2nccnc2c1)N1CCN(c2ccc(C(=O)O)cn2)CC1` (racemic) [Example 67, 6-(4-(1-(quinoxalin-6-yl)ethyl)piperazin-1-yl) nicotinic acid] showed an IC50 of 0.05 to 0.2 µM.

Molecule `CNC(=O)c1cccc(N2CCN(C(C)c3ccc4nccnc4c3)CC2)n1` (racemic) [Example 68, N-methyl-6-(4-(1-(quinoxalin-6-yl)ethyl)piperazin-1-yl) picolinamide] has an IC50 of 0.05 to 0.2 µM.

In the case of `CC(c1ccc2nccnc2c1)N1CCN(c2cccc(C(=O)N(C)C)n2)CC1` (racemic) [Example 69, N, N-dimethyl-6-(4-(1-(quinoxalin-6-yl)ethyl)piperazin-1-yl) picolinamide], the IC50 is reported as 0.2 to 1 µM.

In the case of `COC(=O)c1cccc(N2CCN(C(C)c3ccc4nccnc4c3)CC2)n1` (racemic) [Example 70, Methyl 6-(4-(1-(quinoxalin-6-yl)ethyl)piperazin-1-yl)picolinate], the IC50 is reported as 0.2 to 1 µM.

For `CC(c1ccc2c(c1)OCC2)N1CCN(c2ccc(S(C)(=O)=O)cn2)CC1` (racemic) [Example 71], the IC50 was < 0.05 µM.

In the case of `CC(c1ccc2nccnc2c1)N1CCN(c2ccc(S(C)(=O)=O)cn2)CC1` (racemic) [Example 72, 6-(1-(4-(5-(methylsulfonyl)pyridin-2-yl)piperazin-1-yl)ethyl)quinoxaline], the IC50 is reported as 0.05 to 0.2 µM.

In the case of `CC(c1ccc2scnc2c1)N1CCN(c2ncc(CO)cn2)CC1` (racemic) [Example 73, (2-(4-(1-(benzo[d]thiazol-5-yl)ethyl)piperazin-1-yl)pyrimidin-5-yl)methanol], the IC50 is reported as < 0.05 µM.

With `CC(c1ccc2c(c1)OCC2)N1CCN(c2ncc(C(C)(C)O)cn2)CC1` (racemic) [Example 74, 2-(2-(4-(1-(2,3-dihydrobenzofuran-6-yl)ethyl)piperazin-1-yl)pyrimidin-5-yl) propan-2-ol] the IC50 was < 0.05 µM.

`CC(c1ccc2c(c1)OCC2)N1CCN(c2ncc(CO)cn2)CC1` (racemic) [Example 75, (2-(4-(1-(2,3-Dihydrobenzofuran-6-yl)ethyl)piperazin-1-yl)pyrimidin-5-yl) methanol] was tested, and the IC50 was < 0.05 µM.

`CC(c1ccc2c(c1)OCC2)N1CCN(c2ncc(C3(O)CC3)cn2)CC1` (racemic) [Example 76, 1-(2-(4-(1-(2,3-dihydrobenzofuran-6-yl)ethyl)piperazin-1-yl)pyrimidin-5-yl)cyclopropan-1-ol] was tested, and the IC50 was < 0.05 µM.

For `CC(c1ccc2c(c1)OCC2)N1CCN(c2ncc(C(O)C(F)(F)F)cn2)CC1` (racemic) [Example 77, 1-(2-(4-(1-(2,3-dihydrobenzofuran-6-yl)ethyl)piperazin-1-yl)pyrimidin-5-yl)-2,2,2-trifluoroethan-1-ol], the IC50 was < 0.05 µM.

In the case of `CC(C)C(O)c1cnc(N2CCN(C(C)c3ccc4c(c3)OCC4)CC2)nc1` (racemic) [Example 78, 1-(2-(4-(1-(2,3-dihydrobenzofuran-6-yl)ethyl)piperazin-1-yl)pyrimidin-5-yl)-2-methylpropan-1-ol], the IC50 is reported as < 0.05 µM.

`CC(c1ccc2c(c1)OCC2)N1CCN(c2ncc(C3(O)CCOC3)cn2)CC1` (racemic) [Example 79, 3-(2-(4-(1-(2,3-dihydrobenzofuran-6-yl)ethyl)piperazin-1-yl)pyrimidin-5-yl)tetrahydrofuran-3-ol] was tested, and the IC50 was < 0.05 µM.

For `CC(c1ccc2c(c1)OCC2)N1CCN(c2ncc(C3(O)CCCCC3)cn2)CC1` (racemic) [Example 80, 1-(2-(4-(1-(2,3-dihydrobenzofuran-6-yl)ethyl)piperazin-1-yl)pyrimidin-5-yl)cyclohexan-1-ol], the IC50 was < 0.05 µM.

In the case of `CC(c1ccc2c(c1)OCC2)N1CCN(c2ncc(C3(O)CCOCC3)cn2)CC1` (racemic) [Example 81, 4-(2-(4-(1-(2,3-dihydrobenzofuran-6-yl)ethyl)piperazin-1-yl)pyrimidin-5-yl)tetrahydro-2H-pyran-4-ol], the IC50 is reported as < 0.05 µM.

With `CC(c1ccc2c(c1)OCC2)N1CCN(c2ncc(C3(O)COC3)cn2)CC1` (racemic) [Example 82, 3-(2-(4-(1-(2,3-dihydrobenzofuran-6-yl)ethyl)piperazin-1-yl)pyrimidin-5-yl)oxetan-3-ol] the IC50 was < 0.05 µM.

With `CC(c1ccc2cccnc2n1)N1CCN(c2ncc(C(O)C(F)(F)F)cn2)CC1` (racemic) [Example 83, 1-(2-(4-(1-(1,8-naphthyridin-2-yl)ethyl)piperazin-1-yl)pyrimidin-5-yl)-2,2,2-trifluoroethan-1-ol] the IC50 was < 0.05 µM.

Molecule `CC(O)c1cnc(N2CCN(C(C)c3ccc4nccnc4c3)CC2)nc1` (racemic) [Example 84, 1-(2-(4-(1-(quinoxalin-6-yl)ethyl)piperazin-1-yl)pyrimidin-5-yl) ethan-1-ol] has an IC50 of 0.05 to 0.2 µM.

`CC(c1ccc2nccnc2c1)N1CCN(c2ncc(C(C)(C)O)cn2)CC1` (racemic) [Example 85, 2-(2-(4-(1-(quinoxalin-6-yl)ethyl)piperazin-1-yl)pyrimidin-5-yl) propan-2-ol] gave an IC50 of 0.05 to 0.2 µM.

In the case of `CC(c1ccc2nccnc2c1)N1CCN(c2ncc(CO)cn2)CC1` (racemic) [Example 86, (2-(4-(1-(Quinoxalin-6-yl)ethyl)piperazin-1-yl)pyrimidin-5-yl) methanol], the IC50 is reported as 0.05 to 0.2 µM.

For `CC(c1ccc2nccnc2c1)N1CCN(c2ncc(C(O)C(F)(F)F)cn2)CC1` (racemic) [Example 87, 2,2,2-trifluoro-1-(2-(4-(1-(quinoxalin-6-yl)ethyl)piperazin-1-yl)pyrimidin-5-yl)ethan-1-ol], the IC50 was 0.05 to 0.2 µM.

Molecule `CC(C)C(O)c1cnc(N2CCN(C(C)c3ccc4nccnc4c3)CC2)nc1` (racemic) [Example 88, 2-methyl-1-(2-(4-(1-(quinoxalin-6-yl)ethyl)piperazin-1-yl)pyrimidin-5-yl) propan-1-ol] has an IC50 of 0.05 to 0.2 µM.

In the case of `CC(c1ccc2nccnc2c1)N1CCN(c2ncc(C3(O)CCOCC3)cn2)CC1` (racemic) [Example 89, 4-(2-(4-(1-(quinoxalin-6-yl)ethyl)piperazin-1-yl)pyrimidin-5-yl)tetrahydro-2H-pyran-4-ol], the IC50 is reported as 0.05 to 0.2 µM.

`Cc1cnc(N2CCN(C(C)c3ccc4c(c3)OCC4)CC2)nc1` (racemic) [Example 90, 2-(4-(1-(2,3-dihydrobenzofuran-6-yl)ethyl)piperazin-1-yl)-5-methylpyrimidine] was tested, and the IC50 was < 0.05 µM.

`CC(c1ccn2ccnc2c1)N1CCN(c2ncc(C(F)(F)F)cn2)CC1` (racemic) [Example 91, 7-(1-(4-(5-(trifluoromethyl)pyrimidin-2-yl)piperazin-1-yl)ethyl)imidazo[1,2-a]pyridine] gave an IC50 of 1 to 10 µM.

For `CC(c1ccc2cccnc2n1)N1CCN(c2ncc(C(F)(F)F)cn2)CC1` (racemic) [Example 92, 2-(1-(4-(5-(trifluoromethyl)pyrimidin-2-yl)piperazin-1-yl)ethyl)-1,8-naphthyridine], the IC50 was 0.05 to 0.2 µM.

For `CC(c1cnc2cccnc2c1)N1CCN(c2ncc(C(F)(F)F)cn2)CC1` (racemic) [Example 93, 3-(1-(4-(5-(trifluoromethyl)pyrimidin-2-yl)piperazin-1-yl)ethyl)-1,5-naphthyridine], the IC50 was 0.2 to 1 µM.

In the case of `CC(c1ccc2nccnc2c1)N1CCN(c2ncc(C3=CCCC3)cn2)CC1` (racemic) [Example 94, 6-(1-(4-(5-(cyclopent-1-en-1-yl)pyrimidin-2-yl)piperazin-1-yl)ethyl)quinoxaline], the IC50 is reported as 0.2 to 1 µM.

With `COC(=O)c1cnc(N2CCN(C(C)c3ccc4scnc4c3)CC2)nc1` (racemic) [Example 95, Methyl 2-(4-(1-(benzo[d]thiazol-5-yl)ethyl)piperazin-1-yl)pyrimidine-5-carboxylate] the IC50 was < 0.05 µM.
